According to ChEMBL document CHEMBL1201862, “PubChem BioAssay data set” (2004):
The source made the active and inactive calls.

Key:
[1] = biological target: T1, Tyrosine-protein phosphatase non-receptor type 11 (Homo sapiens, UniProt Q06124); experiment: SHP2 phosphatase inhibition, dose response, selectivity assay for STEP inhibitor project, biochemical (AID 602367); format: functional; conditions: read-out: IC50_Mean
T1 sequence (Q06124 whole entry): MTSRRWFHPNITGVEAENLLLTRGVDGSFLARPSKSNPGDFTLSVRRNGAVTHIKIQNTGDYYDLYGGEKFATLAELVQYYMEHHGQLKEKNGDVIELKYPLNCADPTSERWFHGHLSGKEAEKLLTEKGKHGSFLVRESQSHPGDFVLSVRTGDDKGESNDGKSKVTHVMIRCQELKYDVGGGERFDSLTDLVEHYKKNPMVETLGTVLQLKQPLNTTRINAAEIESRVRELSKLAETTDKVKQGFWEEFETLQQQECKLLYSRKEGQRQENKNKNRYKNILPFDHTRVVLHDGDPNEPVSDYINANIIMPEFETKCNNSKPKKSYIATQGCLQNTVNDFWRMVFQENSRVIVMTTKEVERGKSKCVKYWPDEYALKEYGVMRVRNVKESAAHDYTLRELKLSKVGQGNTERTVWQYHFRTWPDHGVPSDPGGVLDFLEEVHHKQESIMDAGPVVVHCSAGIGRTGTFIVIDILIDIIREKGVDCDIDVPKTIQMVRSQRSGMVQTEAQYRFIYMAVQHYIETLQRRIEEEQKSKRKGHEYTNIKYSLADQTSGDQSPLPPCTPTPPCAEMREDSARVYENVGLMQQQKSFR

[2] = biological target: T2, Tyrosine-protein phosphatase non-receptor type 5 (Homo sapiens, UniProt P54829); experiment: STEP phosphatase inhibitors, confirmation, biochemical, fluorescence intensity, uHTS hits (AID 602372); format: functional; conditions: read-out: IC50_Mean
T2 sequence (P54829 whole entry): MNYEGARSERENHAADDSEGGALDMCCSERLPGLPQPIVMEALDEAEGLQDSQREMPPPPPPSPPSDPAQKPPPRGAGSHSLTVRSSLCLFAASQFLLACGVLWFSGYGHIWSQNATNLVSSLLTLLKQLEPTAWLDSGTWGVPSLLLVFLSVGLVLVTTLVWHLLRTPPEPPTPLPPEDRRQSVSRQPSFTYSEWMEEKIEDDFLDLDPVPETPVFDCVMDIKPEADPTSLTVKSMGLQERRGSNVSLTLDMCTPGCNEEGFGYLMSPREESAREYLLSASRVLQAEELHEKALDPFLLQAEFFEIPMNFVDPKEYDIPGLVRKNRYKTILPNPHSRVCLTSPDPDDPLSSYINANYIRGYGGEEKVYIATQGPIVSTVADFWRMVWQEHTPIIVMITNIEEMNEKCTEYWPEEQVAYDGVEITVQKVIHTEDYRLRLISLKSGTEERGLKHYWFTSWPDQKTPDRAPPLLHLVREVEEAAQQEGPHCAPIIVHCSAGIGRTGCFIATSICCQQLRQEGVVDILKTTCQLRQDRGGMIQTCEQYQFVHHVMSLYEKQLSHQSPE

[3] = biological target: Dual specificity protein phosphatase 3 (Homo sapiens, UniProt P51452); experiment: VHR phosphatase inhibition, dose response, selectivity assay for STEP inhibitor project, biochemical (AID 602374); format: functional; conditions: read-out: IC50_Mean
Sequence of Dual specificity protein phosphatase 3 (P51452 whole entry): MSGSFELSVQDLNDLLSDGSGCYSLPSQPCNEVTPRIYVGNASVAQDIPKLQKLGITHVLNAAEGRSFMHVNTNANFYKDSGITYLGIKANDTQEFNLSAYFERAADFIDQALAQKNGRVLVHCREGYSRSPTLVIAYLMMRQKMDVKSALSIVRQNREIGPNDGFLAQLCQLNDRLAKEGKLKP

[4] = biological target: Nuclear receptor subfamily 5 group A member 2 (Homo sapiens, UniProt O00482); format: functional, cell-based;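 also: HEK293T cells transfected with LRH-1 and a StAR promoter luciferase reporter; potency for inhibitors that lower LRH-1 driven reporter light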
Sequence of Nuclear receptor subfamily 5 group A member 2 (O00482 whole entry): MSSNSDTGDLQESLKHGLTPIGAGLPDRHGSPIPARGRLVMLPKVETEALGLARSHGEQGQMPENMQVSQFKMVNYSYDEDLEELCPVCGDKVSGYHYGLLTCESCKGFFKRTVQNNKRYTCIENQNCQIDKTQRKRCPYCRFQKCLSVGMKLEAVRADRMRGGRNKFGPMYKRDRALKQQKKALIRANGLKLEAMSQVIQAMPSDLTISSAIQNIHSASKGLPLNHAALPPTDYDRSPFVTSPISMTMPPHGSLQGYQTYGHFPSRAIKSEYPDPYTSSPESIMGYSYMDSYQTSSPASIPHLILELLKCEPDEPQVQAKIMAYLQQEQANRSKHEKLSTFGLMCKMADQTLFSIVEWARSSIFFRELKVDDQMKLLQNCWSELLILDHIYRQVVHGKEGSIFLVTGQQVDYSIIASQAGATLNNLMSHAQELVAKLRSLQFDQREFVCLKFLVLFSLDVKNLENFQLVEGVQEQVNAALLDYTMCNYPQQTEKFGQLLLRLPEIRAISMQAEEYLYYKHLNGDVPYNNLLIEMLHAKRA

Steroidogenic factor 1 = Steroidogenic factor 1 (Homo sapiens, UniProt Q13285); experiment: Counterscreen for inverse agonists of the liver receptor homolog-1 (LRH-1; NR5A2): Luminescence-based cell-based high throughput dose response assay to identify inverse agonists of the Steroidogenic Factor 1 Nuclear Receptor (SF1; NR5A1).; format: functional
Sequence of Steroidogenic factor 1 (Q13285 whole entry): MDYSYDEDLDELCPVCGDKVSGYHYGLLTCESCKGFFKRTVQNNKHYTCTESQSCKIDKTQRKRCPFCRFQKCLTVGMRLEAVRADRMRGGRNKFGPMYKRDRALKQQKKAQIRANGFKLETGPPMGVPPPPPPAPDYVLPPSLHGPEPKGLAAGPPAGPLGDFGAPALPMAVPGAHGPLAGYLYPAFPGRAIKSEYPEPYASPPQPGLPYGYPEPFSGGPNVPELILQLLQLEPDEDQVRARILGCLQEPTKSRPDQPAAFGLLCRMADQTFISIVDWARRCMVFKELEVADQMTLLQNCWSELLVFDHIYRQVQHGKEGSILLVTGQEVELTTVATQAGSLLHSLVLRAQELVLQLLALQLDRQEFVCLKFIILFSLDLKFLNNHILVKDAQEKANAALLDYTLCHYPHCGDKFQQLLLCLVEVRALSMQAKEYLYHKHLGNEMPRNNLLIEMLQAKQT

[5] = StAR promoter reporter inhibition counter-screen, dose response, counter-screen for LRH-1 inverse agonist project, cell-based, luminescence, luciferase reporter (AID 651969); format: functional
[6] = biological target: T3, DNA repair and recombination protein RAD54-like (Homo sapiens, UniProt Q92698); experiment: inhibitors of human RAD54 branch migration, confirmation, biochemical, fluorescence, cherry-picked samples, dose series (AID 651657); format: functional
T3 sequence (Q92698 whole entry): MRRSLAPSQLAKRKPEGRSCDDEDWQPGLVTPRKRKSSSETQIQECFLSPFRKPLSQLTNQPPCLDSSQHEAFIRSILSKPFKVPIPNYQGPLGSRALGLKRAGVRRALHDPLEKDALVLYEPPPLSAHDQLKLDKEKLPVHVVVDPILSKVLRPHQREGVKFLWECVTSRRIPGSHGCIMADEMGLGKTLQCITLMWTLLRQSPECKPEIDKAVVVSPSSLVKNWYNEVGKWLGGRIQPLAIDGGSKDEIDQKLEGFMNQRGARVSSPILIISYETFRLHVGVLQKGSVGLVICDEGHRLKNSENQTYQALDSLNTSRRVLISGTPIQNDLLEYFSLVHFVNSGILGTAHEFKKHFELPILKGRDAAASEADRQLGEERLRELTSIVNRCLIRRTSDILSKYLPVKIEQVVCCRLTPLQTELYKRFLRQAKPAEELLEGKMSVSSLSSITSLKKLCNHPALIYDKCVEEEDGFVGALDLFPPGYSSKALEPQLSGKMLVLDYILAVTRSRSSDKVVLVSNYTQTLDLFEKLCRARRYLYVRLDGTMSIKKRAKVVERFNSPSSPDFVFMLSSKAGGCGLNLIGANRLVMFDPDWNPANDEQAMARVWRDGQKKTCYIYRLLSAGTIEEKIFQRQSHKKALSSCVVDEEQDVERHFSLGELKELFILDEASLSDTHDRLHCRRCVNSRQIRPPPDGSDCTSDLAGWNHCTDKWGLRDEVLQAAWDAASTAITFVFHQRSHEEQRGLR

[7] = biological target: T4, DNA repair protein RAD52 homolog (Homo sapiens, UniProt P43351); format: functional, biochemical
T4 sequence (P43351 whole entry): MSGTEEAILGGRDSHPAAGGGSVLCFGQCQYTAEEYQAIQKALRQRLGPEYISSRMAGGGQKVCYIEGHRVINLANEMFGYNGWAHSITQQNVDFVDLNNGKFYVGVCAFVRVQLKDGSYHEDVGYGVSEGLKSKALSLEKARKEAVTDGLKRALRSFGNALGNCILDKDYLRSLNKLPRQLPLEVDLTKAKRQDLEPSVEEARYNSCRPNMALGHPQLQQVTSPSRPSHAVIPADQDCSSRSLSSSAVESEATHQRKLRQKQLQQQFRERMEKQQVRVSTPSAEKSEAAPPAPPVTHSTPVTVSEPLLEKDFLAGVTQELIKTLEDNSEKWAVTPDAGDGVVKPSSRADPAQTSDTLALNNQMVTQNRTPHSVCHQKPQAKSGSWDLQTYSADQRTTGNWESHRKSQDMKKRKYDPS

[8] = biological target: Photoreceptor-specific nuclear receptor (Homo sapiens, UniProt Q9Y5X4); format: functional, cell-based;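 also: CHO-S cells with Gal4-NCOR and VP16-NR2E3 two-hybrid luciferase reporter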
Sequence of Photoreceptor-specific nuclear receptor (Q9Y5X4 whole entry, the tested form may be a part): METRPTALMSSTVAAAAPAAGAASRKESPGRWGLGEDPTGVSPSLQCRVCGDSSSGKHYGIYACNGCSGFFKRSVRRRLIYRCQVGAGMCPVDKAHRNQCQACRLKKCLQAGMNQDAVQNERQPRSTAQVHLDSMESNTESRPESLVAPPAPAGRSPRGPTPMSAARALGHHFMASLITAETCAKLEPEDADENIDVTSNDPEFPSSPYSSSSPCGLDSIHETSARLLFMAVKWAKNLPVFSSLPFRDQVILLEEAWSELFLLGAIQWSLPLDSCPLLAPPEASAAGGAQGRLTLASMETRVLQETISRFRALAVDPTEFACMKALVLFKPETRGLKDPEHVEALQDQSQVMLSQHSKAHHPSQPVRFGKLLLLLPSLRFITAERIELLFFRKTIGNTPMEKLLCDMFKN

Fatty acid synthase [9] = biological target: T5, Fatty acid synthase (Homo sapiens, UniProt P49327); experiment: FAS thioesterase domain inhibitors, dose response, biochemical, endpoint fluorescence intensity, uHTS hits (AID 624327); format: functional;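 also: fluorescence from hydrolysis of an O-methyl fluorescein acyl ester substrate by the enzyme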
T5 sequence (P49327 whole entry, the tested form may be a part): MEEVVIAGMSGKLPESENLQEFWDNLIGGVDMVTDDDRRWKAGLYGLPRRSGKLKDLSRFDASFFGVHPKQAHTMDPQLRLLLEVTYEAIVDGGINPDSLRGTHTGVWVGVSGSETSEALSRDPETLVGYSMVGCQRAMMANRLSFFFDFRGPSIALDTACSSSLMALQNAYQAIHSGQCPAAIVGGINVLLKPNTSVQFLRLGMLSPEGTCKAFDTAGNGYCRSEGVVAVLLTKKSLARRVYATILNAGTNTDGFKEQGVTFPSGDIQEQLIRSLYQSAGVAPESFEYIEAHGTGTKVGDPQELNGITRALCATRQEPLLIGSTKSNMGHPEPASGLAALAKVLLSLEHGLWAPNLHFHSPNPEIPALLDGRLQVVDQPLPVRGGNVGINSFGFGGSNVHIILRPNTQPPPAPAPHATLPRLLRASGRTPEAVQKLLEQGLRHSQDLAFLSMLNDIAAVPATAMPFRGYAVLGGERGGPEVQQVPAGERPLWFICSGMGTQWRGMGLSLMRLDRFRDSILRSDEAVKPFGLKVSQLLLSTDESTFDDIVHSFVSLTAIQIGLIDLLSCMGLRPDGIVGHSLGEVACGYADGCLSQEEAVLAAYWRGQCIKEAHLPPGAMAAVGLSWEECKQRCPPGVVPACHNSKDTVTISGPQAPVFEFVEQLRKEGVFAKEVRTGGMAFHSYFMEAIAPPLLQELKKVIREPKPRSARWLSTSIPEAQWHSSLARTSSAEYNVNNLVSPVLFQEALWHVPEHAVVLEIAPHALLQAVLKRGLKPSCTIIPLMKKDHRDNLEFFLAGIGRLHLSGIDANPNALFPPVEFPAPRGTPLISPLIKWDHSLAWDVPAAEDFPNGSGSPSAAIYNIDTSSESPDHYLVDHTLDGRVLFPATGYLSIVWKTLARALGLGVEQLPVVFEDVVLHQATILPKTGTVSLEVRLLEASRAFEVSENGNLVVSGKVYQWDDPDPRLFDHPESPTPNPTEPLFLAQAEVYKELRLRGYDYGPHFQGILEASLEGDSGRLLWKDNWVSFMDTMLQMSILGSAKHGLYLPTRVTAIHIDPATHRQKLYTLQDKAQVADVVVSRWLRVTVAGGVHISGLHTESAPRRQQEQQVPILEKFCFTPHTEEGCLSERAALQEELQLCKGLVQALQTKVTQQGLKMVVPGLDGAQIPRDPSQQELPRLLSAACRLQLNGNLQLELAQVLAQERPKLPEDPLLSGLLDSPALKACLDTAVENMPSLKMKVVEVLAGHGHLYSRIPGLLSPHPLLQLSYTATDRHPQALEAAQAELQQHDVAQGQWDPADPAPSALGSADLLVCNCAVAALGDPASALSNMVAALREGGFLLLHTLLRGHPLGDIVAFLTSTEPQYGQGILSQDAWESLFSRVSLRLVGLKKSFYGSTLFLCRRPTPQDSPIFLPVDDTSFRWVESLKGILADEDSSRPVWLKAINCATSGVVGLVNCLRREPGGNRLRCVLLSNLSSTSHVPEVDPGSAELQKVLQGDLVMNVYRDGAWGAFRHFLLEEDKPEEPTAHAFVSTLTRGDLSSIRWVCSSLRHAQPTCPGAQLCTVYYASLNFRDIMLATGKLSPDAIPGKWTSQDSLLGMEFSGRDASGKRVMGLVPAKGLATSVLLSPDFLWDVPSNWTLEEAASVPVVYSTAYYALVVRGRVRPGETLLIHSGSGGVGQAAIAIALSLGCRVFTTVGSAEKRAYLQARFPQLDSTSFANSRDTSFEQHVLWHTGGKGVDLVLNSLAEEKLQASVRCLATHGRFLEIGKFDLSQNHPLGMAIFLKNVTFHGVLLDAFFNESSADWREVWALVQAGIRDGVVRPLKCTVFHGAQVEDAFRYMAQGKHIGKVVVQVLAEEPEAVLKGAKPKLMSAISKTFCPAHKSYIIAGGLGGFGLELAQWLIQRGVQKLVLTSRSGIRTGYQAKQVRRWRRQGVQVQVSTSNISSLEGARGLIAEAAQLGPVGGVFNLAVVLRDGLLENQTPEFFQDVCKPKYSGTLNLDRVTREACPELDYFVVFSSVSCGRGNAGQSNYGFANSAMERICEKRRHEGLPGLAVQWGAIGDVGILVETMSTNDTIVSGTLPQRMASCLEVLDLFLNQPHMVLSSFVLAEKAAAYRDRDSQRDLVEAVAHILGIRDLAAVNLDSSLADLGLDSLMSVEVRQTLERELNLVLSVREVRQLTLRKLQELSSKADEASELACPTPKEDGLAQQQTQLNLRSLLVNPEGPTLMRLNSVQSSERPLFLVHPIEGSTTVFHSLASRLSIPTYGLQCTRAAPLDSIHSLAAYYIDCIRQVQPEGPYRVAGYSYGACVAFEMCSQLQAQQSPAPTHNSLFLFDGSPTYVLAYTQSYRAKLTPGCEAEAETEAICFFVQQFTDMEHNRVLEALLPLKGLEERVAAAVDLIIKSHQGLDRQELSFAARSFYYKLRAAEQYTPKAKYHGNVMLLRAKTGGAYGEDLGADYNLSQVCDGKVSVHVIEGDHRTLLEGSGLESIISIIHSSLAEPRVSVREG

Fatty acid synthase [10] = biological target: T5, Fatty acid synthase; experiment: FAS thioesterase domain inhibitors, dose response, biochemical, kinetic fluorescence intensity (AID 624326); format: functional;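 also: rate of fluorescence rise from hydrolysis of a fluorogenic O-methyl fluorescein ester substrate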
[11] = intracellular Trypanosoma cruzi inhibitors in host cells – cell-based, plate reader, cherry-pick samples, set 3, dose response (AID 651818); format: functional;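 also: compounds incubated with infected cells for about four days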
[12] = biological target: T6, Polyadenylate-binding protein 1 (Homo sapiens, UniProt P11940); experiment: PABP1 MLLE–PAM2 interaction inhibitors, dose response, miRNA deadenylation inhibitor project, biochemical, fluorescence polarization, Cy5-PAM2 peptide, secondary (AID 602260); format: functional; conditions: read-out: IC50_Mean
T6 sequence (P11940 whole entry): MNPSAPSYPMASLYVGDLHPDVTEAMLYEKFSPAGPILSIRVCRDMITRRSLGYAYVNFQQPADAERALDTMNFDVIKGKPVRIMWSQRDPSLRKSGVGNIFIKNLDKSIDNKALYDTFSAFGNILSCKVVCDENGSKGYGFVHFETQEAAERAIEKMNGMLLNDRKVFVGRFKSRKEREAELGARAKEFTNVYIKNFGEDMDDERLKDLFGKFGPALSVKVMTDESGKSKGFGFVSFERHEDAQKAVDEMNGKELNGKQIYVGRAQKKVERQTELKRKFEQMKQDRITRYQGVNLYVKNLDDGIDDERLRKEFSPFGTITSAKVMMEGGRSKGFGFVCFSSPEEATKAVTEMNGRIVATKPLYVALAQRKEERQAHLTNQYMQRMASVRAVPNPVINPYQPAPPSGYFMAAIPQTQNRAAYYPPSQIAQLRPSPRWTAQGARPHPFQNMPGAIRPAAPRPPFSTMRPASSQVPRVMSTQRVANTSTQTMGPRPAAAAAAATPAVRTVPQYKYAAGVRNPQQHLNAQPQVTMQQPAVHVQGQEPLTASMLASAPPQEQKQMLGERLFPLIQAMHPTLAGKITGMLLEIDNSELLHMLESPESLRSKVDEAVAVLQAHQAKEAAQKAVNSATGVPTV

[13] = biological target: T6, Polyadenylate-binding protein 1; experiment: PABP1 MLLE–PAM2 binding inhibitor potency, dose response, biochemical, fluorescence polarization, FITC-PAM2 peptide (AID 602259); format: functional; conditions: read-out: IC50_Mean
Caspase-6 = biological target: T7, Caspase-6 (Homo sapiens, UniProt P55212); experiment: human caspase-6 inhibitors, dose response, biochemical, VEID-R110 fluorescence, cherry-pick (AID 720632)
T7 sequence (P55212 whole entry): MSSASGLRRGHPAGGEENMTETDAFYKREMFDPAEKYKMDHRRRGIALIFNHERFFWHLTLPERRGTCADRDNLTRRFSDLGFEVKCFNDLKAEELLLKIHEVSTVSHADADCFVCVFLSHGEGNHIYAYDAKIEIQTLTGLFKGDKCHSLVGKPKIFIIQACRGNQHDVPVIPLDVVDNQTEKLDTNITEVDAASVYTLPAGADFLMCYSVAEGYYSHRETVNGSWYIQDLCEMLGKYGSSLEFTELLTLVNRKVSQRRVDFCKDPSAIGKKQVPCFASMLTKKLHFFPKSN

[14] = biological target: T8, Histone-lysine N-methyltransferase NSD2 (Homo sapiens, UniProt O96028); format: biochemical
T8 sequence (O96028 whole entry): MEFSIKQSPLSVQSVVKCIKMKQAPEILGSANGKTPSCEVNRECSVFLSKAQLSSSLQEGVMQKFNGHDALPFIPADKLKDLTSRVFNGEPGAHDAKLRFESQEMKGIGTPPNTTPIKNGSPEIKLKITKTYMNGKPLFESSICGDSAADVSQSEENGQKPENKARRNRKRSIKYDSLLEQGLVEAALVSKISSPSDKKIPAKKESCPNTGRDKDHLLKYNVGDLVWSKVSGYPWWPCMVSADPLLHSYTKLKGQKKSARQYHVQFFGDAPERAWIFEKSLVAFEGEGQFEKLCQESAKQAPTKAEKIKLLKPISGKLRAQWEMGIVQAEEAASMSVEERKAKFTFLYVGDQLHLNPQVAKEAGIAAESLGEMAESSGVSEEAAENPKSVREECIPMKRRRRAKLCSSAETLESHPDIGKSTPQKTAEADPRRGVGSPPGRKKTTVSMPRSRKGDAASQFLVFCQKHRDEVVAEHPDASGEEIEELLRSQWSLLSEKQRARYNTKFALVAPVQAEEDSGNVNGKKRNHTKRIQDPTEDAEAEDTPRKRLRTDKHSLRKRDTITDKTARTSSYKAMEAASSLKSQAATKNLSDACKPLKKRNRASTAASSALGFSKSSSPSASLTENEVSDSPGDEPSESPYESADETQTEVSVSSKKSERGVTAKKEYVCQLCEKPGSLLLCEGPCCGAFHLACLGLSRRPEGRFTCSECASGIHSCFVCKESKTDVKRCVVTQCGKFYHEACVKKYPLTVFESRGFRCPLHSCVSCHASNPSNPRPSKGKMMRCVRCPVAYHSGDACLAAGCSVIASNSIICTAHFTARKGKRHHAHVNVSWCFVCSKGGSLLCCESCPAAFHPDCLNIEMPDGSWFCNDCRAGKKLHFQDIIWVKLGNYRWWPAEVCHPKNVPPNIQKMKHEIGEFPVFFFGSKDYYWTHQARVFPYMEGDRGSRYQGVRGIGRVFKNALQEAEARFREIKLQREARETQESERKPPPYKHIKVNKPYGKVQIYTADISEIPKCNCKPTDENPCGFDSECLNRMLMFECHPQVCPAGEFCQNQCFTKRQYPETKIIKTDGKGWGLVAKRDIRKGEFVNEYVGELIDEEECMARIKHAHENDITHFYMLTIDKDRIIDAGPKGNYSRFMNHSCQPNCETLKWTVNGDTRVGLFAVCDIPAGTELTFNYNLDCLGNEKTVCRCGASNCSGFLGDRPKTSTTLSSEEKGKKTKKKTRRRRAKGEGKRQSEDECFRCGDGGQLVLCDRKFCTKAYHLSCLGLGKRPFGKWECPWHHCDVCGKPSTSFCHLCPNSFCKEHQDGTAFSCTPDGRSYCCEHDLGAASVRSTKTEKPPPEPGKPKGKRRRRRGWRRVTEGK

SMILES: Cc1ccc(C(=S)N2CCN(Cc3ccccc3)CC2)s1
- IC50 [1]: 3.1 µM (active)
- IC50 [2]: 16.5 µM (active)
- IC50 [3]: 0.997 µM (active)

SMILES: O=C(CN1C(=O)CCC1=O)Nc1ccc(Br)cc1
- IC50 [4]: 11.1 µM (inactive)
- IC50 (Steroidogenic factor 1): 8.78 µM (active)
- IC50 [5]: 35.9 µM (inactive)

SMILES: O=[N+]([O-])c1cc(F)c(N2CCCCCC2)cc1N1CCNCC1
- IC50 [4]: 3.99 µM (active)
- IC50 (Steroidogenic factor 1): 6.27 µM (active)
- IC50 [5]: 35 µM (inactive)

SMILES: CN(C)CCNc1ncnc2sc(-c3ccccc3)cc12
- AC50 [6]: 27.2 µM (active)
- AC50 [7]: 9 µM (active)

SMILES: CCCCCCCCCCCCN1[C@@H](CC(=O)O)c2cc(F)ccc2S1(=O)=O
- IC50 [8]: 4.28 µM (active)
- IC50 (Fatty acid synthase [9]): 2.83 µM (active)
- IC50 (Fatty acid synthase [10]): 2.62 µM (active)

SMILES: C[C@@H]1CN([C@H](C)CO)C(=O)c2cccc(NC(=O)c3nc4ccccc4s3)c2O[C@H]1CN(C)S(=O)(=O)c1ccc(Cl)cc1
- AC50 [11]: 0.964 µM (active)

SMILES: C[C@H](CO)N1C[C@H](C)[C@H](CN(C)S(=O)(=O)c2ccc(F)cc2)Oc2ccc(NS(=O)(=O)c3ccc(F)cc3)cc2C1=O
- AC50 [11]: 7.7 µM (active)

SMILES: C[C@H]1CN([C@@H](C)CO)C(=O)Cc2cc(NC(=O)Nc3cccc4ccccc34)ccc2O[C@@H]1CN(C)CC1CCCCC1
- AC50 [11]: 4.35 µM (active)

SMILES: Nc1ccc2c(O)cc(S(=O)(=O)O)cc2c1
- IC50 [12]: > 66 µM (inactive)
- IC50 [1]: 1.04 µM (active)
- IC50 [13]: > 66 µM (inactive)
- IC50 [2]: 33.4 µM (inactive)
- IC50 [3]: 3.43 µM (active)
- AC50 (Caspase-6): 2.15 µM (active)
- AC50 [14]: 6.49 µM (active)
